# According to patent US8283478B2, “Process for preparation of sulfamide derivatives” (Janssen Pharmaceutica NV, priority 2005, dated 2012):
# Test system: CF-1 male albino mice (MES-induced seizure)
# Test: Maximal Electroshock Test (MES), anticonvulsant activity
# Format: in vivo
# Conditions: for MES @ 300 mpk: (number of mice with full body tonic extension prevented)/(total number of mice tested): 300 mpk oral
# Procedure: Anticonvulsant activity was determined using the MES test, run according to the procedure described in detail below. Swinyard E A, Woodhead J H, White H S, Franklin M R. Experimental selection, quantification, and evaluation of anticonvulsants. In Levy R H, et al., eds. Antiepileptic Drugs. 3rd ed. New York: Raven Press, 1989:85-102
# CF-1 male albino mice (25-35 g) were fasted for 16 hours before testing. Mice were randomly selected into control and test groups, with the animals dosed with vehicle or test compound, at varying concentrations, respectively. On the study date, at 30 minutes prior to shock, the mice were orally dosed with vehicle (0.5% methylcellulose) or test compound (100-300 mg/kg). Seizures were induced by trans-corneal electric shock using a 60-Hz alternating current, 50 mA, delivered for 0.2 sec. The mice in the test groups were subjected to electrical stimulus at time intervals between 15 minutes and 4 hours following administration of test compound. […] The test was complete when the entire course of the convulsion has been observed (typically, less than 1 minute after electrical stimulation), and the mice were then immediately euthanized by carbon dioxide inhalation.
# Abolition of the full body tonic extensor component of the seizure was taken as the endpoint of the test. […] The ED50 value of the test compound (calculated when appropriate) was the calculated dose required to block the hind limb tonic-extensor component of the MES-induced seizure in 50% of the rodents tested. A probit analysis was used to calculate the ED50 and 95% fiducial limits (FL).
# Representative compounds of the present invention were tested according to the procedure described above, with results as listed in Table 3 below. Results are listed as (number of mice with full body tonic extension prevented)/(total number of mice tested) (@ a given time).
# [1] = 100 mpk oral, 0.5 h after dosing
SMILES,MES @ 100 mpk: (number of mice with full body tonic extension prevented)/(total number of mice tested) [1],"MES @ 100 mpk: (number of mice with full body tonic extension prevented)/(total number of mice tested) (100 mpk oral, 2 h after dosing)","MES @ 100 mpk: (number of mice with full body tonic extension prevented)/(total number of mice tested) (100 mpk oral, 4 h after dosing)","MES @ 100 mpk (result in words) (100 mpk oral, time not stated)",MES @ 300 mpk: (number of mice with full body tonic extension prevented)/(total number of mice tested) (0.5 hr after dosing),MES @ 300 mpk: (number of mice with full body tonic extension prevented)/(total number of mice tested) (2 hr after dosing),MES @ 300 mpk: (number of mice with full body tonic extension prevented)/(total number of mice tested) (4 hr after dosing)
"NS(=O)(=O)NCc1csc2ccccc12 [Compound 1, N-(benzo[b]thien-3-ylmethyl)-sulfamide]",1/5 (0.5 h),3/5 (2 h),2/5 (4 h),–,–,–,–
"Cn1cc(CNS(N)(=O)=O)c2ccccc21 [Compound 7, N-[(1-methyl-1H-indol-3-yl)methyl]-sulfamide]",–,–,–,inactive,5/5 (0.5 hr),0/5 (2 hr),0/5 (4 hr)
"Cc1oc2ccccc2c1CNS(N)(=O)=O [Compound 13, N-[(2-methyl-3-benzofuranyl)methyl]-sulfamide]",4/5 (0.5 h),0/5 (2 h),0/5 (4 h),–,–,–,–
"NS(=O)(=O)NCc1csc2ccc(Br)cc12 [Compound 15, N-[(5-bromobenzo[b]thien-3-yl)methyl]-sulfamide]",–,–,–,–,0/3 (0.5 hr),0/3 (2 hr),1/3 (4 hr)
"NS(=O)(=O)NCc1csc2cccc(Br)c12 [Compound 17, N-[(4-bromobenzo[b]thien-3-yl)methyl]-sulfamide]",–,–,–,–,0/3 (0.5 hr),0/3 (2 hr),1/3 (4 hr)
"NS(=O)(=O)NCc1csc2c(F)cccc12 [Compound 18, N-[(7-fluorobenzo[b]thien-3-yl)methyl]-sulfamide]",–,–,–,–,0/3 (0.5 hr),2/3 (2 hr),0/3 (4 hr)
